These results are taken from US8026281B2, “Treating metabolic syndrome with fenofibrate” (Lupin Atlantis Holdings, S.A., priority 2004, dated 2011).

Each structure is given as a SMILES string.

For data set [1], the system named is high-risk patients. As to conditions: particularly those with diabetes and insulin resistance; cited from earlier work.
Data set [2] relates to subjects with hypertriglyceridemia and metabolic syndrome. Kind of data set: Phase III placebo-controlled study of 130 mg fenofibrate, with and without food: prevalence of metabolic syndrome. The note with it: for prevalence of metabolic syndrome at end of treatment: 130 mg daily.
Protocol: Objectives: A primary outcome variable was the difference in the prevalence of metabolic syndrome between the group treated with 130 mg of fenofibrate (“the treatment group”) versus the placebo group (“the placebo”). A related outcome variable included the effect of food on fenofibrate efficacy.
Methodology: This was a multicenter, prospective, double-blind, double-dummy, randomized, placebo-controlled, parallel group study of a micronized formulation of fenofibrate at a single daily dose of 130 mg. Subjects took prescription or over-the-counter lipid lowering medications or dietary supplements known to alter lipid levels or other aspects of the lipid profile until week 6 (visit 1). At week 6, subjects were instructed to follow the therapeutic lifestyle changes diet, in accordance with the Food and Drug Administration guidelines for clinical evaluations of lipid-altering agents.
Also at week 6, qualifying subjects were stratified by triglyceride level and randomized in a double-blind fashion to one of three groups, the first two of which constituted the treatment group and the third group constituted the placebo: A) 1 fenofibrate capsule (130 mg) with food and 1 placebo capsule without food; B) 1 fenofibrate capsule (130 mg) without food (three hours after a meal) and 1 placebo capsule with food; and C) placebo, 1 placebo capsule with food and 1 placebo capsule without food. […] One capsule was taken with the subjects' evening meal and a second capsule was taken three hours post-meal. The first dosing occurred on the first evening after visit 4. A lipid profile was measured at every visit, and other measurements were taken regularly throughout the study.
Treatment duration was eight weeks.
The conditions of data set [3]: cited from earlier work.

As for `Cc1ccc(C)c(OCCCC(C)(C)C(=O)O)c1` [gemfibrozil], the “risk for major cardiovascular events” value in data set [1] is reported as “reduced the risk for major cardiovascular events”.

As to `CC(C)OC(=O)C(C)(C)Oc1ccc(C(=O)c2ccc(Cl)cc2)cc1` [fenofibrate, 2-[4-(4-chlorobenzoyl)phenoxy]-2-methyl-propanoic acid, 1-methylethyl ester], the “safety and efficacy conclusion” value in data set [2] (fenofibrate formulation 130 mg, eight weeks) is “safe and efficacious”. Moreover, in data set [2] (fenofibrate formulation 130 mg, with food versus without food), the food effect entry is “does not exhibit a food effect”. Also, the “prevalence of metabolic syndrome at end of treatment” value is reported as 74.1% in data set [2] (fenofibrate with food group, eight weeks, reduced from 96.3% prevalence); 66.7% in data set [2] (fenofibrate without food group (three hours after a meal), eight weeks, reduced from 97.6% prevalence); 70.8% in data set [2] (whole treatment group, eight weeks, reduced from 96.9% prevalence, placebo 98.0% to 86.0%). Also, the “decrease in number of subjects having three or more metabolic syndrome criteria” value in data set [2] (treatment group (fenofibrate 130 mg once daily, with or without food), eight-week treatment, placebo 12%, chi-square p-value=0.0416) is listed as “more than 25%”.

Take `CC(C)(Oc1ccc(C(=O)c2ccc(Cl)cc2)cc1)C(=O)O` [fenofibric acid]: in data set [3] (dose of 300 mg per day), the “mean concentration in the plasma” value is around 15000 ng/mL. In addition, the “time of maximum concentration in the plasma after ingestion of the medicinal product” value in data set [3] (on average) is listed as “five”. In addition, in data set [3] (plasma), the “half-life for elimination from the plasma” value is around 20 h.
